Measured values from ChEMBL document CHEMBL5325466, “Recent research advances in ATX inhibitors: An overview of primary literature” (Bioorg Med Chem, 2023).

Tests used:
Autotaxin [1] = molecular target: Autotaxin (Mus musculus, UniProt Q9R1E6); assay: Inhibition of ATX in mouse plasma; type: cell-free
Autotaxin [2] = molecular target: T1, Autotaxin (Homo sapiens, UniProt Q13822); assay: Inhibition of ATX (unknown origin) using […] as substrate
Autotaxin [3] = molecular target: T1, Autotaxin; assay: Inhibition of ATX in human blood; type: tissue-based
Autotaxin [4] = molecular target: T1, Autotaxin; assay: Inhibition of human ATX using LPC as substrate assessed as choline release measured after 1.5 hrs by fluorescence based assay
Autotaxin [5] = molecular target: T1, Autotaxin; assay: Inhibition of recombinant human ATX expressed in Sf9 cells using FS-3 as substrate measured after 1 hrs by fluorescence based assay
Autotaxin [6] = molecular target: T1, Autotaxin; assay: Inhibition of human ATX using FS-3 as substrate measured after 1 hrs by fluorescence based […] assay
Autotaxin [7] = molecular target: T1, Autotaxin; assay: Inhibition of human ATX using LPC as substrate measured after 2 hrs by fluorescence based choline release assay
[8] = Inhibition of hen egg white ATX using LPC as substrate preincubated for 30 mins followed by substrate addition measured after 90 mins by choline release assay; design: species or system Gallus gallus
Autotaxin [9] = molecular target: T1, Autotaxin; assay: Inhibition of human ATX using LPC as substrate preincubated for 30 mins followed by substrate addition measured after 90 mins by choline release assay
Autotaxin [10] = molecular target: T1, Autotaxin; assay: Inhibition of ATX (unknown origin) using FS-3 as substrate

Question: What does the source list for `CCCn1cc(-n2c(C)c(Sc3cccc(C(=O)O)c3F)c3ccc(Cl)c(F)c32)cn1`?
Answer: IC50 (Autotaxin [1]): 22 nM; IC50 (Autotaxin [2]): 1.1 nM; IC50 (Autotaxin [3]): 8.9 nM

Question: With `Cc1c(Sc2cccc(C(=O)O)c2F)c2ccc(Cl)c(F)c2n1C(=O)N1CC2(CC2)c2ccccc21` as the compound, how does the IC50 (Autotaxin [4]) read?
Answer: 2 nM

Question: With `CS(=O)(=O)N(c1cc(C(=O)Nc2cc(F)c(F)c(F)c2)c(Cl)cc1Cl)C1CCOCC1` as the compound, how does the IC50 (Autotaxin [5]) read?
Answer: 219 nM

Question: With `O=C(Nc1ccc(Br)cc1)c1cc(S(=O)(=O)N2CCCCC2)c(Cl)cc1Cl` as the compound, how does the IC50 (Autotaxin [6]) read?
Answer: 21 nM

Question: What about the IC50 (Autotaxin [7]) of the same compound?
Answer: 23 nM

Question: Which results are given for `N#CC1=C(N)Oc2n[nH]c(-c3ccc(OCc4ccc(F)cc4)cc3)c2[C@H]1c1ccc(Cl)c(Cl)c1`?
Answer: IC50 [8]: 87 nM; IC50 (Autotaxin [9]): 134 nM

Question: With `CS(=O)(=O)N(c1cc(C(=O)Nc2cc(F)c(Cl)c(F)c2)c(Cl)cc1Cl)C1CCOCC1` as the compound, how does the IC50 (Autotaxin [5]) read?
Answer: 218 nM

Question: Which IC50 (Autotaxin [10]) does the source give for `CCc1nc2c(C)cc(-c3ccc(C(=O)N4CCN(CCO)CC4)cc3)cn2c1NC(=O)OCc1ccc2c(c1)OCO2` here?
Answer: 2.7 nM

Question: Which IC50 (Autotaxin [7]) does the source give for `O=C(Nc1cccc(F)c1)c1cc(S(=O)(=O)N2CCOCC2)c(Cl)cc1Cl` here?
Answer: 43.6 nM
